{"source": "paper PMC7196435", "about": "(Bioorganic & medicinal chemistry letters, 2020)", "origin": "cited, not measured here", "test_system": "CYP46A1", "details": "at 1 μM concentration"}
{"smiles": "O=C(NCc1ccccc1)N1CCN(c2cncnc2-c2ccccc2)CC1", "note": "[compound 1]", "values": [{"measurement": "inhibitory activity towards CYP46A1", "value": 95, "unit": "%"}]}
